In one assay the target is T1, human CB1 receptor (Homo sapiens, UniProt P21554).
T1 construct: expressed in transfected cells; host or cells: human embryonic kidney (HEK) cells, Semliki Forest Virus system, membrane preparations
Description: CB1 receptor affinity ([3H]-CP-55,940 displacement, HEK cell membranes). The format is binding. Particulars: displacement of [3H]-CP-55,940 at 10 μM; read-out: CB1 receptor affinity [% inhibition @ 10 μM]. An outline of the steps: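 HEK cell membranes transiently expressing human CB1 (Semliki Forest Virus) incubated with [3H]-CP-55,940 and compound at 10 μM. Bound and free ligand separated by glass-fibre filtration, then scintillation counting. Reported as % inhibition of radioligand binding.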
On the technique in general: In a radioligand displacement assay an active substance lowers the binding of a labelled ligand.

In another assay the test system is ABCA1 protein. Description: Detection of upregulation of ABCA1 protein in cells (ApoA-I binding, high content imaging). Format: cell-based. Particulars: THP-1 macrophage cells, compound at 3 μM, 24 hrs. In outline:
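PMA-differentiated THP-1 macrophages, loaded 24 h with 25 μg/ml acetylated LDL, treated 24 h with compound (0.5% DMSO final). ABCA1 read as binding of Alexa Fluor 647-ApoA-I (20 nM, 2 h, 37° C.) by confocal high-content imaging after fixation, background-subtracted; EC50 from one-site dose–response fit.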

The next assay has as its target T2, human CB2 receptor (Homo sapiens, UniProt P34972).
T2 construct: expressed in transfected cells; host or cells: human embryonic kidney (HEK) cells, Semliki Forest Virus system, membrane preparations
Description: CB2 receptor affinity ([3H]-CP-55,940 displacement, HEK cell membranes). The format is binding. Particulars: displacement of [3H]-CP-55,940 at 10 μM. An outline of the steps:
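Membranes from HEK cells transiently expressing human CB2 via Semliki Forest Virus, incubated with [3H]-CP-55,940 ± compound; bound ligand separated by glass-fiber filtration and counted by scintillation. Reported as % inhibition of radioligand binding at 10 μM compound.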

Consider one compound from patent publication US8648099B2 (Hoffmann-La Roche Inc., priority 2011, dated 2014).

Molecules are shown by their SMILES.

T1 sequence (P21554 whole entry): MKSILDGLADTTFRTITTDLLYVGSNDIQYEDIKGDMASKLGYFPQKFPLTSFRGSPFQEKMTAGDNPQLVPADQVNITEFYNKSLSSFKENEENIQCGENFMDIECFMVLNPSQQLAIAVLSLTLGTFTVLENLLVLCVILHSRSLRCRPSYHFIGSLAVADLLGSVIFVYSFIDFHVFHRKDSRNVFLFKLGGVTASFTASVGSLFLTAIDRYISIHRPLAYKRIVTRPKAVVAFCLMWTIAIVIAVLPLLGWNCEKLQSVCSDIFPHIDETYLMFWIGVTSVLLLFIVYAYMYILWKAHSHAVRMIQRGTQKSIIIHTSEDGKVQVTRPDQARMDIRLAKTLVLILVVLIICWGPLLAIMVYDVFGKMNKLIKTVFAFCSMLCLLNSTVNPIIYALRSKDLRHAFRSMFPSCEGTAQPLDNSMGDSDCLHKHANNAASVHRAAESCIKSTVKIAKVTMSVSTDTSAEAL
T2 sequence (P34972 whole entry): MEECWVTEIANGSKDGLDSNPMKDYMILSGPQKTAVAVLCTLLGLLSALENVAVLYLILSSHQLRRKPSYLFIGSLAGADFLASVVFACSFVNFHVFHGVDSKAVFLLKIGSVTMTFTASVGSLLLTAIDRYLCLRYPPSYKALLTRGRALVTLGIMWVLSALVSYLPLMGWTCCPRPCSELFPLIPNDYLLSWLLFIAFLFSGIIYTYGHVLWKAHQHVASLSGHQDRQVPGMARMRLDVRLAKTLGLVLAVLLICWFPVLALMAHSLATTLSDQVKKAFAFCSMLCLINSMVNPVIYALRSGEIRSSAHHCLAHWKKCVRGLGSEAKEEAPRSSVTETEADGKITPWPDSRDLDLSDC

Regarding `O=C(NN1CCN(CCO)CC1)c1cnc(OCC(F)(F)F)c(-c2ccc(Cl)cc2)c1` [Example 25, 5-(4-chlorophenyl)-N-(4-(2-hydroxyethyl)piperazin-1-yl)-6-(2,2,2-trifluoroethoxy)-3-pyridinecarboxamide], the inhibition at 10 µM was 14% on human CB1 receptor and -18% on human CB2 receptor. In addition, the “% increase of ABCA1 at 3 μM” value in the assay with ABCA1 protein is more than 45%@ 3 μM.

A word on the inhibition: it is the change of the read-out against control, counted positive when it falls.
